According to patent US4432987A, “Crystalline benzenesulfonate salts of sultamicillin” (priority 1982, dated 1984):
Structures can show the parent of a compound that is named as a salt. One block for each compound: values may come before it.

How the values were obtained:
[1] = Stability and solubility of sultamicillin forms; assay type: physicochemical; details: for stability (in words): solid state / handling
[2] = Storage of anhydrous salt under humidity / atmospheric moisture; assay type: physicochemical
Text: When 4-chlorobenzenesulfonic acid is used in the above procedure the corresponding anhydrous 4-chlorobenzenesulfonic acid addition salt is obtained.

[3] = tested on: Sarcina lutea (ATCCC 9341); details: no beta-lactamase; sulbactam up to 100 μg./ml.
[4] = tested on: Pasteurella histolytica (59B010); details: beta-lactamase mediated resistance; high concentrations alone or combined
[5] = Apparent solubility of sultamicillin salts in water and simulated gastric juice (without pepsin, pH 1.2), HPLC; assay type: physicochemical; details: for Final pH, Simulated Gastric Juice: final pH of the solubility test in simulated gastric juice; for Final pH, Water: final pH of the solubility test in water; for Apparent Solubility, Simulated Gastric Juice: simulated gastric juice without pepsin, pH 1.2, 30 minutes agitation; for Apparent Solubility, Simulated Gastric Juice / Apparent Solubility, Water: 30 min; for Apparent Solubility, Water: 30 minutes vigorous agitation
Method: The solubility of the salts in water and simulated gastric juice without pepsin (pH 1.2) were compared. Equilibrium solubility was not determined since the compounds are not entirely stable in aqueous systems for the extended time required to reach equilibrium. Therefore, the apparent solubility was determined by vigorous agitation for 30 minutes with the solvent. The resulting mixture was then filtered and the amount of compound in solution determined by high pressure liquid chromatography (HPLC).
(§1) In the solubility and stability studies above samples of the materials were assayed by HPLC using a Chromegabond C-8* column (4.6 mm internal diameter×30 cm.). The mobile phase consisted of 30% by weight acetonitrile in pH 3 phosphate buffer (0.1 M). Flow rate, 1.6 ml/minute. Detection was by UV at 230 nm.

[6] = Stability on storage at 50° C. for three weeks, retained potency (HPLC); assay type: physicochemical; details: 30240 min
Method: as §1

SMILES: CC1(C)S[C@@H]2[C@H](NC(=O)[C@H](N)c3ccccc3)C(=O)N2[C@H]1C(=O)OCOC(=O)[C@@H]1N2C(=O)C[C@H]2S(=O)(=O)C1(C)C [Sultamicillin free base, 1,1-dioxopenicillanoyloxymethyl 6-[D-(2-amino-2-phenylacetamido)]penicillanate]
stability (in words) [1]: poor handling characteristics and inadequate stability

SMILES: CC1(C)S[C@@H]2[C@H](NC(=O)[C@H](N)c3ccccc3)C(=O)N2[C@H]1C(=O)O [ampicillin]
susceptibility / synergy, Sarcina lutea [3]: susceptible | susceptibility / synergy, Pasteurella histolytica [4]: insensitivity

SMILES: CC1(C)[C@H](C(=O)O)N2C(=O)C[C@H]2S1(=O)=O [sulbactam, penicillanic acid 1,1-dioxide]
susceptibility / synergy, Sarcina lutea [3]: insensitive to sulbactam at concentrations as high as 100 μg./ml. | susceptibility / synergy, Pasteurella histolytica [4]: insensitivity

SMILES: CC1(C)S[C@@H]2[C@H](NC(=O)[C@H](N)c3ccccc3)C(=O)N2[C@H]1C(=O)OCOC(=O)[C@@H]1N2C(=O)C[C@H]2S(=O)(=O)C1(C)C
dihydrate formation upon exposure to atmospheric moisture ([2]; 48 hours): forms a dihydrate

SMILES: CC1(C)S[C@@H]2[C@H](NC(=O)[C@H](N)c3ccccc3)C(=O)N2[C@H]1C(=O)OCOC(=O)[C@@H]1N2C(=O)C[C@H]2S(=O)(=O)C1(C)C [4-Chlorobenzenesulfonate.2H2 O, 1,1-Dioxopenicillanoyloxymethyl 6-[D-(2-amino-2-phenylacetamido)]penicillanate 4-chlorobenzenesulfonate dihydrate]
Final pH, Simulated Gastric Juice ([5]; dihydrate): 1.1 | Final pH, Water ([5]; dihydrate): 3.8 | Apparent Solubility, Simulated Gastric Juice ([5]; dihydrate): 6300 µg/mL | Apparent Solubility, Water ([5]; dihydrate): 3300 µg/mL | potency retained upon storage ([6]; listed as 4-chlorobenzenesulfonae.2H2 O, dihydrate): 100%

The next lines start with the values.

water content of dihydrate formed upon storage ([2]; 50% relative humidity, 30 hours, by weight): 4.5%
SMILES: CC1(C)S[C@@H]2[C@H](NC(=O)[C@H](N)c3ccccc3)C(=O)N2[C@H]1C(=O)OCOC(=O)[C@@H]1N2C(=O)C[C@H]2S(=O)(=O)C1(C)C [anhydrous salt, Anhydrous 1,1-Dioxopenicillanoyloxymethyl 6-[D-(2-amino-2-phenylacetamido)]penicillanate benzenesulfonate]

Final pH, Simulated Gastric Juice ([5]; benzenesulfonate dihydrate): 2.0 | Final pH, Water ([5]; benzenesulfonate dihydrate): 3.4 | Apparent Solubility, Simulated Gastric Juice ([5]; benzenesulfonate dihydrate): 1800 µg/mL | Apparent Solubility, Water ([5]; benzenesulfonate dihydrate): 2150 µg/mL | potency retained upon storage ([6]; benzenesulfonate dihydrate): 97%
SMILES: CC1(C)S[C@@H]2[C@H](NC(=O)[C@H](N)c3ccccc3)C(=O)N2[C@H]1C(=O)OCOC(=O)[C@@H]1N2C(=O)C[C@H]2S(=O)(=O)C1(C)C [Benzenesulfonate.2H2 O, 1,1-Dioxopenicillanoyloxymethyl 6-[D-(2-amino-2-phenylacetamido)]penicillanate benzenesulfonate dihydrate]

Final pH, Simulated Gastric Juice ([5]; hydrochloride): 1.12 | Final pH, Water ([5]; hydrochloride): 2.0 | Apparent Solubility, Simulated Gastric Juice ([5]; hydrochloride): > 79000 µg/mL | Apparent Solubility, Water ([5]; hydrochloride): > 94000 µg/mL | potency retained upon storage ([6]; listed as hydrochloride salt, hydrochloride): 67% | solubility in water / aqueous systems (in words) [1]: highly soluble in water | stability in water (in words) ([1]; aqueous): subject to hydrolytic decomposition | stability (in words) ([1]; hydrochloride): poor solid state stability
SMILES: CC1(C)S[C@@H]2[C@H](NC(=O)[C@H](N)c3ccccc3)C(=O)N2[C@H]1C(=O)OCOC(=O)[C@@H]1N2C(=O)C[C@H]2S(=O)(=O)C1(C)C [Hydrochloride, 1,1-Dioxopenicillanoyloxymethyl 6-[D-(2-amino-2-phenylacetamido)]penicillanate hydrochloride]
